Source: patent US20060110401A1, “Mixture of peptides from c and ns3 proteins of the hepatitis c virus and applications thereof” (priority 2002, published 2006)
pIC50: −log10 of the molar value. Like-named read-outs stand apart in the source and are kept apart here. Residues, ends and D or L forms follow the SMILES beside them.

Legend:
DRB5 = test: DRB5
HLA-DR11 (DRB1*1101) = HLA-DR11 (DRB1*1101) (Homo sapiens, UniProt P01903+P01911, A100R/A169T/A87E/I96F/K41T/L162R/M171V/P40S/Q125H/Q178H/Q39Y/Q99D/R42S/S66Y/T262R/V115G/W38E); test: biochemical; format: binding; details: read-out: binds with good affinity to DR11
Sequence of HLA-DR11 (DRB1*1101) (P01903 26-254 limits assumed, other chains not shown): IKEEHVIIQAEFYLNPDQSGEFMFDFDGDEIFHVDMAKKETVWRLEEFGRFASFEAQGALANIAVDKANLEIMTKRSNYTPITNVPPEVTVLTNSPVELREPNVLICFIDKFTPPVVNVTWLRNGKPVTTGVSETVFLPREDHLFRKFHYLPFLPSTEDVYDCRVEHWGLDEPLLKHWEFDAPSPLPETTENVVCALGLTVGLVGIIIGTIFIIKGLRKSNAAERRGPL

DR11 = test: DR11
Text: (§1) Table printed on a drawing sheet, Figure 2
Where the first naming reader finds the target: head: DR11

HLA-DR13 (DRB1*1301) = HLA-DR13 (DRB1*1301) (Homo sapiens, UniProt P01903+P01911, A100E/A169T/K41T/L162R/M171V/P40S/Q125H/Q178H/Q39Y/Q99D/R42S/S66N/T262R/W38E/Y61H); test: biochemical; format: binding; details: read-out: binds with good affinity to DR13
HLA-DR15 (DRB1*1501) = biological target: T1, HLA-DR15 (DRB1*1501) (Homo sapiens, UniProt P01903+P01911); test: biochemical; format: binding; details: DRB1*1501; read-out: binds with good affinity to DR15
T1 construct: endogenous in cells; host or cells: homozygous EBV-transformed human B lymphocyte lines; immunopurified with antibody L243

DR3 = test: DR3
Text: as §1
Where the first naming reader finds the target: head: DR3

HLA-DP402 (DPB1*0402) = HLA-DP402 (DPB1*0402) (Homo sapiens, UniProt P04440+P20036, A65V/A84D/A85E/L207M); test: biochemical; format: binding; details: DP*0402; read-out: binds with good affinity to DP402
DR7 = test: DR7
HLA-DR4 (DRB1*0401) = biological target: T2, HLA-DR4 (DRB1*0401) (Homo sapiens, UniProt P01903+P01911, A100K/A169T/F76Y/I96L/K127E/L162R/M171V/N62H/P40V/Q125Y/R42H/S133A/S149N/S66Y/V115G/V209L/W38E); test: biochemical; format: binding; details: read-out: binds with good affinity to DR4
T2 construct: endogenous in cells; host or cells: homozygous EBV-transformed human B lymphocyte lines; immunopurified with antibody L243

DRB4 = test: DRB4
Text: as §1
Where the first naming reader finds the target: head: DRB4

HLA-DRB5 (DRB5*0101) = biological target: T3, HLA-DRB5 (DRB5*0101) (Homo sapiens, UniProt P01903+Q30154); test: biochemical; format: binding; details: read-out: binds with good affinity to DRB5
T3 construct: endogenous in cells; host or cells: homozygous EBV-transformed human B lymphocyte lines; immunopurified with antibody L243

HLA-DR1 (DRB1*0101) = biological target: T4, HLA-DR1 (DRB1*0101) (Homo sapiens, UniProt P01903+P01911, A100R/D57E/F55L/F60I/F76Y/I96L/L162R/M171V/P40L/Q125E/R42F/V115G/Y59C); test: biochemical; format: binding; details: for pIC50: DRB1*0101
T4 construct: endogenous in cells; host or cells: homozygous EBV-transformed human B lymphocyte lines; immunopurified with antibody L243

[1] = system: T lymphocytes derived from PBMCs from patients chronically infected with HCV; format: cell-based, human; details: supernatant 48 h, —: not detected
HLA-DR3 (DRB1*0301) = biological target: T5, HLA-DR3 (DRB1*0301) (Homo sapiens, UniProt P01903+P01911, A100K/A102G/A103R/A169T/F55Y/I96L/K41T/L162R/M171V/P40S/Q125H/Q178H/Q39Y/R42S/S66N/T106N/T262R/W38E/Y61H); test: biochemical; format: binding; details: read-out: binds with good affinity to DR3
T5 construct: endogenous in cells; host or cells: homozygous EBV-transformed human B lymphocyte lines; immunopurified with antibody L243

DP401 = test: DP401
DRB3 = test: DRB3
DP402 = test: DP402
HLA-DRB4 (DRB4*0101) = biological target: T6, HLA-DRB4 (DRB4*0101) (Homo sapiens, UniProt P01903+P13762, G164S); test: biochemical; format: binding; details: read-out: binds with good affinity to DRB4
T6 construct: endogenous in cells; host or cells: homozygous EBV-transformed human B lymphocyte lines; immunopurified with antibody L243

DR15 = test: DR15
HLA-DR7 (DRB1*0701) = HLA-DR7 (DRB1*0701) (Homo sapiens, UniProt P01903+P01911, A100R/A102G/A103Q/D57E/D86V/E43K/F76Y/K127E/L162R/M171V/P40G/Q125H/Q99D/R33Q/R42Y/R54Q/S133A/S66F/T210M/V115G/Y107V/Y59L/Y89S); test: biochemical; format: binding; details: read-out: binds with good affinity to DR7
HLA-DRB3 (DRB3*0101) = biological target: T7, HLA-DRB3 (DRB3*0101) (Homo sapiens, UniProt P01903+P79483); test: HLA II/peptide binding assay, HLA-DRB3; details: read-out: binds with good affinity to DRB3
T7 construct: endogenous in cells; host or cells: homozygous EBV-transformed human B lymphocyte lines; immunopurified with antibody L243

DR1 = test: DR1
DR4 = test: DR4
DR13 = test: DR13
Text: as §1
Where the first naming reader finds the target: head: DR13

[2] = read-out: binds with good affinity to DR1

| SMILES | pIC50 (DRB5) | pIC50 (HLA-DR11 (DRB1*1101)) | pIC50 (DR11) | pIC50 (HLA-DR13 (DRB1*1301)) | pIC50 (HLA-DR15 (DRB1*1501)) | pIC50 (DR7) | pIC50 (HLA-DR4 (DRB1*0401)) | pIC50 (HLA-DRB5 (DRB5*0101)) | pIC50 (HLA-DR1 (DRB1*0101); [2]) | pIC50 (HLA-DR3 (DRB1*0301)) | pIC50 (DP401) | pIC50 (DRB3) | pIC50 (DP402) | pIC50 (HLA-DRB4 (DRB4*0101)) | pIC50 (DR15) | pIC50 (HLA-DR7 (DRB1*0701)) | pIC50 (HLA-DRB3 (DRB3*0101)) | other results |
| --- | --- | --- | --- | --- | --- | --- | --- | --- | --- | --- | --- | --- | --- | --- | --- | --- | --- | --- |
| CC[C@H](C)[C@H](NC(=O)[C@H](CCC(=O)O)NC(=O)[C@H](CCCNC(=N)N)NC(=O)CN)C(=O)N[C@@H](CC(C)C)C(=O)N[C@@H](CC(C)C)C(=O)NCC(=O)N1CCC[C@H]1C(=O)N[C@@H](C)C(=O)N[C@@H](CC(=O)O)C(=O)NCC(=O)N[C@@H](CCSC)C(=O)N[C@H](C(=O)N[C@@H](CO)C(=O)N[C@@H](CCCCN)C(=O)NCC(=O)N[C@@H](Cc1c[nH]c2ccccc12)C(=O)N[C@@H](CCCNC(=N)N)C(=O)N[C@@H](CC(C)C)C(=O)N[C@@H](CC(C)C)C(=O)N[C@@H](C)C(=O)N1CCC[C@H]1C(=O)N[C@H](C(=O)N[C@H](C(=O)N[C@@H](C)C(=O)N[C@@H](Cc1ccc(O)cc1)C(=O)N[C@@H](C)C(=O)N[C@@H](CCC(N)=O)C(=O)N[C@@H](CCC(N)=O)C(=O)N[C@H](C(=O)N[C@@H](CCCNC(=N)N)C(=O)O)[C@@H](C)O)[C@@H](C)O)[C@@H](C)CC)C(C)C [8N 1007-1037] | 8.70 | > 6.00 | 9.00 | > 6.00 | > 6.00 | 7.06 | > 6.00 | > 6.00 | > 6.00 | > 6.00 | 5.14 | 4.82 | 6.06 | > 6.00 | 7.52 | > 6.00 |  | pIC50 (DR3): 6.70; pIC50 (HLA-DP402 (DPB1*0402)): > 6.00; pIC50 (DRB4): 7.22; pIC50 (HLA-DR1 (DRB1*0101); competition with biotinylated tracer HA 306-318, read-out: IC50, binding to HLA-DR1): 8.70; affinity for HLA-DR1 (in words) (HLA-DR1 (DRB1*0101); legend of FIG. 4): high affinity; IL10 ([1]; patient 067): 43 pg/mL; IL10 ([1]; patient 078): 41 pg/mL |
| CC[C@H](C)[C@H](NC(=O)CNC(=O)[C@@H]1CCCN1C(=O)[C@@H](N)CCCCN)C(=O)N[C@@H](Cc1ccc(O)cc1)C(=O)N[C@@H](CCCNC(=N)N)C(=O)N[C@@H](Cc1ccccc1)C(=O)N[C@H](C(=O)N[C@@H](C)C(=O)N1CCC[C@H]1C(=O)NCC(=O)N[C@@H](CCC(=O)O)C(=O)N[C@@H](CCCNC(=N)N)C(=O)N1CCC[C@H]1C(=O)N[C@@H](CO)C(=O)NCC(=O)N[C@@H](CCSC)C(=O)N[C@@H](Cc1ccccc1)C(=O)N[C@@H](CC(=O)O)C(=O)O)C(C)C [27N 1495-1513] (H-KPGIYRFVAPGERPSGMFD-OH; N-terminus and C-terminus assumed) | 8.70 | > 6.00 | 6.76 |  | > 6.00 | 6.50 |  | > 6.00 | > 6.00 |  | < 4.00 | 4.40 | < 4.00 | > 6.00 | 6.82 | > 6.00 | > 6.00 |  |
| CC[C@H](C)[C@H](NC(=O)[C@@H](NC(=O)[C@H](Cc1ccccc1)NC(=O)[C@@H](NC(=O)[C@@H]1CCCN1C(=O)[C@H](CC(=O)O)NC(=O)[C@H](CC(C)C)NC(=O)[C@H](CO)NC(=O)[C@H](Cc1ccccc1)NC(=O)[C@H](CC(=O)O)NC(=O)[C@@H](NC(=O)[C@@H](NC(=O)[C@H](CCC(N)=O)NC(=O)[C@@H](NC(=O)[C@@H](NC(=O)[C@H](C)NC(=O)[C@@H](N)[C@@H](C)O)C(C)C)[C@@H](C)O)[C@@H](C)O)C(C)C)[C@@H](C)O)[C@@H](C)O)C(=O)N[C@@H](CCC(=O)O)C(=O)N[C@H](C(=O)N[C@H](C(=O)N[C@H](C(=O)N[C@@H](CC(C)C)C(=O)N1CCC[C@H]1C(=O)N[C@@H](CCC(N)=O)C(=O)N[C@@H](CC(=O)O)C(=O)N[C@@H](C)C(=O)O)[C@@H](C)O)[C@@H](C)CC)[C@@H](C)O [26N 1456-1481] |  | > 6.00 |  | > 6.00 | > 6.00 | 7.70 | > 6.00 | > 6.00 | > 6.00 | > 6.00 |  | 7.40 |  | > 6.00 |  | > 6.00 | > 6.00 | pIC50 (DR1): 8.70; pIC50 (DR4): 8.10; pIC50 (DR13): 6.52 |
